According to the NIST ThermoML archive (doi:10.1016/j.jct.2012.08.033):

Experiment: xn = mol fraction of the nth substance listed
Conditions: Liquid, vibrating tube

C1CCOC1 [tetrahydrofuran] + O
mass density [kg/m3]
Conditions	78.5 kPa	100.7 kPa
303.11 K, x2 = 0.0404	–	878.45
303.11 K, x2 = 0.0593	–	879.58
303.11 K, x2 = 0.9573	–	987.78
303.11 K, x2 = 0.9723	990.22	990.21
303.11 K, x2 = 0.9826	991.87	991.85
303.12 K, x2 = 0.0208	877.38	877.61
303.12 K, x2 = 0.6092	924.49	924.62
303.12 K, x2 = 0.9709	990.08	990.06
303.13 K, x2 = 0.0429	878.4	878.63
303.13 K, x2 = 0.8857	974.05	974.07
308.19 K, x2 = 0.3407	891.62	891.86
308.22 K, x2 = 0.0872	875.87	876.14
308.22 K, x2 = 0.9418	982.23	982.27
308.22 K, x2 = 0.9519	984.2	984.24
308.22 K, x2 = 0.9921	991.99	992.01
308.23 K, x2 = 0.0269	871.92	872.19
308.23 K, x2 = 0.0404	872.54	872.75
308.23 K, x2 = 0.0593	873.61	873.88
308.23 K, x2 = 0.988	991.08	991.1
308.24 K, x2 = 0.0208	871.65	871.93
308.24 K, x2 = 0.9723	988.08	988.11
308.24 K, x2 = 0.9826	989.93	989.95
308.25 K, x2 = 0.6092	919.21	919.38
308.25 K, x2 = 0.8857	970.11	970.18
308.25 K, x2 = 0.9573	985.24	985.28
308.25 K, x2 = 0.9709	987.99	987.82
308.26 K, x2 = 0.0429	872.71	872.89
313.26 K, x2 = 0.3407	886.03	886.33
313.28 K, x2 = 0.0269	866.21	866.56
313.28 K, x2 = 0.0872	869.29	869.63
313.28 K, x2 = 0.9418	979.18	979.28
313.29 K, x2 = 0.0593	867.9	868.25
313.29 K, x2 = 0.9519	981.33	981.43
313.29 K, x2 = 0.9921	990.02	990.1
313.3 K, x2 = 0.0404	866.86	867.21
313.3 K, x2 = 0.988	989.08	989.16
313.31 K, x2 = 0.9826	987.78	987.87
313.32 K, x2 = 0.6092	913.96	914.2
313.32 K, x2 = 0.9723	985.71	985.8
313.33 K, x2 = 0.9709	985.46	985.55
313.34 K, x2 = 0.0208	866.07	866.42
313.34 K, x2 = 0.8857	966.2	966.33
313.34 K, x2 = 0.9573	982.55	982.65
313.35 K, x2 = 0.0429	867.1	867.44
